Measurements as given in publication PMC10752118 (Therapeutic Advances in Medical Oncology, 2023).

Legend:
[1] = system: treatment refractory HER2 over-expressing breast cancer; conditions: in combination with weekly trastuzumab and paclitaxel, nine patients; cited from earlier work
[2] = Plasma PK, noncompartmental analysis; assay type: in vivo, human; conditions: for observed clearance (CL), dose dependence: 1 h IV infusion
HSP90 = conditions: read-out: dissociation constant (Kd); cited from earlier work
[3] = system: uridine diphosphate-glucoronosyltransferases; conditions: cited from earlier work
[4] = cited from earlier work
[5] = prior single-agent study; cited from earlier work
[6] = system: P-glycoprotein (P-gp) multidrug transporter; conditions: cited from earlier work
[7] = system: patients with advanced TNBC; assay: Phase Ib 3 + 3 dose escalation: DLT assessment, MTD and RP2D; assay type: in vivo, human
[8] = Day 7 (no paclitaxel), DL1, onalespib 120 mg/m^2 IV, geometric mean ± SD
[9] = Day 7 (no paclitaxel), DL2, onalespib 150 mg/m^2 IV, geometric mean ± SD
[10] = Day 7 (no paclitaxel), DL3, onalespib 200 mg/m^2 IV, geometric mean ± SD
[11] = Day 7 (no paclitaxel), DL4, onalespib 260 mg/m^2 IV, geometric mean ± SD
[12] = Day 8 (with 80 mg/m^2 paclitaxel), DL1, onalespib 120 mg/m^2 IV, geometric mean ± SD
[13] = Day 8 (with 80 mg/m^2 paclitaxel), DL2, onalespib 150 mg/m^2 IV, geometric mean ± SD
[14] = Day 8 (with 80 mg/m^2 paclitaxel), DL3, onalespib 200 mg/m^2 IV, geometric mean ± SD
[15] = Day 8 (with 80 mg/m^2 paclitaxel), DL4, onalespib 260 mg/m^2 IV, geometric mean ± SD
[16] = Day 1 (no onalespib), 80 mg/m^2 paclitaxel IV, DL1, geometric mean ± SD
[17] = Day 1 (no onalespib), 80 mg/m^2 paclitaxel IV, DL2, geometric mean ± SD
[18] = Day 1 (no onalespib), 80 mg/m^2 paclitaxel IV, DL3, geometric mean ± SD
[19] = Day 1 (no onalespib), 80 mg/m^2 paclitaxel IV, DL4, geometric mean ± SD

SMILES: CC(C)c1cc(-c2n[nH]c(=O)n2-c2ccc3c(ccn3C)c2)c(O)cc1O [ganetespib]
- partial response [1]: 22%
- stable disease [1]: 56%

SMILES: CC(C)c1cc(C(=O)N2Cc3ccc(CN4CCN(C)CC4)cc3C2)c(O)cc1O [onalespib, (2,4-dihydroxy-5-isopropylphenyl)-[5-(4-methylpiperazin-1-ylmethyl)-1,3-dihydroisoindol-2-yl]methanone]
- exposure (AUCinf and Cmax), dose proportionality ([2]; 120 to 260 mg/m^2): approximately dose-proportional
- observed clearance (CL), dose dependence [2]: independent of dose
- CL [2, 8]: 42.6 ± 4.99 L/h/m^2
- Vz [2, 8]: 344 ± 134 L/m^2
- CL [2, 9]: 51.1 ± 4.37 L/h/m^2
- Vz [2, 9]: 443 ± 23.2 L/m^2
- CL [2, 10]: 48.4 ± 29.2 L/h/m^2
- Vz [2, 10]: 522 ± 273 L/m^2
- CL [2, 11]: 41.6 ± 10.0 L/h/m^2
- Vz [2, 11]: 427 ± 102 L/m^2
- CL [2, 12]: 47.9 ± 2.03 L/h/m^2
- Vz [2, 12]: 730 ± 121 L/m^2
- CL [2, 13]: 64.3 ± 21.0 L/h/m^2
- Vz [2, 13]: 801 ± 263 L/m^2
- CL [2, 14]: 51.4 ± 14.8 L/h/m^2
- Vz [2, 14]: 717 ± 282 L/m^2
- CL [2, 15]: 45.2 ± 13.4 L/h/m^2
- Vz [2, 15]: 598 ± 208 L/m^2
- effect of combination with paclitaxel on overall exposure (AUCinf and Cmax) ([2]; cycle 1 day –7 versus day 8): no apparent changes in overall exposure
- AUC(0-inf) ([2]; human, plasma, intravenous, AUCinf, range, single agent, cycle 1, day –7, all DLs (120 to 260 mg/m^2)): 4.3 to 22.7 µM·h
- half-life ([2]; human, plasma, intravenous, mean t1/2, range across DLs, as a single agent only): 6.04 to 7.32 h
- AUC(0-inf) ([2]; human, plasma, iv, 120 mg/m2, AUCinf, Day 7 (no paclitaxel), DL1, onalespib 120 mg/m^2 IV, geometric mean ± SD): 6.72 ± 0.688 µM·h
- Cmax ([2]; human, plasma, iv, 120 mg/m2, Cmax, Day 7 (no paclitaxel), DL1, onalespib 120 mg/m^2 IV, geometric mean ± SD): 2.8 ± 0.844 µM
- half-life ([2]; human, plasma, iv, 120 mg/m2, t1/2, Day 7 (no paclitaxel), DL1, onalespib 120 mg/m^2 IV, median (range)): 7.23 h
- AUC(0-inf) ([2]; human, plasma, iv, 200 mg/m2, AUCinf, Day 7 (no paclitaxel), DL3, onalespib 200 mg/m^2 IV, geometric mean ± SD): 10 ± 4.35 µM·h
- Cmax ([2]; human, plasma, iv, 200 mg/m2, Cmax, Day 7 (no paclitaxel), DL3, onalespib 200 mg/m^2 IV, geometric mean ± SD): 3.21 ± 2.56 µM
- half-life ([2]; human, plasma, iv, 200 mg/m2, t1/2, Day 7 (no paclitaxel), DL3, onalespib 200 mg/m^2 IV, median (range)): 7.32 h
- AUC(0-inf) ([2]; human, plasma, iv, 260 mg/m2, AUCinf, Day 7 (no paclitaxel), DL4, onalespib 260 mg/m^2 IV, geometric mean ± SD): 15.2 ± 3.84 µM·h
- Cmax ([2]; human, plasma, iv, 260 mg/m2, Cmax, Day 7 (no paclitaxel), DL4, onalespib 260 mg/m^2 IV, geometric mean ± SD): 5.36 ± 2.8 µM
- half-life ([2]; human, plasma, iv, 260 mg/m2, t1/2, Day 7 (no paclitaxel), DL4, onalespib 260 mg/m^2 IV, median (range)): 6.83 h
- AUC(0-inf) ([2]; human, plasma, iv, AUCinf, Day 8 (with 80 mg/m^2 paclitaxel), DL1, onalespib 120 mg/m^2 IV, geometric mean ± SD): 6.1 ± 0.244 µM·h
- AUC(0-inf) ([2]; human, plasma, iv, AUCinf, Day 8 (with 80 mg/m^2 paclitaxel), DL2, onalespib 150 mg/m^2 IV, geometric mean ± SD): 5.64 ± 2.32 µM·h
- AUC(0-inf) ([2]; human, plasma, iv, AUCinf, Day 8 (with 80 mg/m^2 paclitaxel), DL3, onalespib 200 mg/m^2 IV, geometric mean ± SD): 9.46 ± 2.24 µM·h
- AUC(0-inf) ([2]; human, plasma, iv, AUCinf, Day 8 (with 80 mg/m^2 paclitaxel), DL4, onalespib 260 mg/m^2 IV, geometric mean ± SD): 14 ± 4.66 µM·h
- Cmax ([2]; human, plasma, iv, Cmax, Day 8 (with 80 mg/m^2 paclitaxel), DL1, onalespib 120 mg/m^2 IV, geometric mean ± SD): 2.74 ± 0.676 µM
- Cmax ([2]; human, plasma, iv, Cmax, Day 8 (with 80 mg/m^2 paclitaxel), DL2, onalespib 150 mg/m^2 IV, geometric mean ± SD): 2.41 ± 1.03 µM
- Cmax ([2]; human, plasma, iv, Cmax, Day 8 (with 80 mg/m^2 paclitaxel), DL3, onalespib 200 mg/m^2 IV, geometric mean ± SD): 4.64 ± 2.64 µM
- Cmax ([2]; human, plasma, iv, Cmax, Day 8 (with 80 mg/m^2 paclitaxel), DL4, onalespib 260 mg/m^2 IV, geometric mean ± SD): 5.53 ± 4.5 µM
- half-life ([2]; human, plasma, iv, t1/2, Day 8 (with 80 mg/m^2 paclitaxel), DL1, onalespib 120 mg/m^2 IV, median (range)): 10.5 h
- half-life ([2]; human, plasma, iv, t1/2, Day 8 (with 80 mg/m^2 paclitaxel), DL2, onalespib 150 mg/m^2 IV, median (range)): 8.55 h
- half-life ([2]; human, plasma, iv, t1/2, Day 8 (with 80 mg/m^2 paclitaxel), DL3, onalespib 200 mg/m^2 IV, median (range)): 9.62 h
- half-life ([2]; human, plasma, iv, t1/2, Day 8 (with 80 mg/m^2 paclitaxel), DL4, onalespib 260 mg/m^2 IV, median (range)): 9.11 h
- Kd (HSP90): 0.71 nM
- glucuronidation substrate status [3]: substrate for glucuronidation
- water solubility [4]: High water solubility
- maximum tolerated dose [5]: 260 mg/m^2
- interaction with P-gp [6]: substrate and moderate inhibitor of P-gp
- MTD of onalespib ([7]; combined with paclitaxel 80 mg/m^2, IV days 1, 8, 15 of 28-day cycle): 260 mg/m^2
- RP2D of onalespib ([7]; given with paclitaxel 80 mg/m^2, IV days 1, 8, 15 of 28-day cycle): 260 mg/m^2

SMILES: CC(=O)O[C@H]1C(=O)[C@@]2(C)[C@H]([C@H](OC(=O)c3ccccc3)[C@]3(O)C[C@H](OC(=O)[C@H](O)[C@@H](NC(=O)c4ccccc4)c4ccccc4)C(C)=C1C3(C)C)[C@]1(OC(C)=O)CO[C@@H]1C[C@@H]2O [paclitaxel]
- observed clearance (CL), dose dependence [2]: independent of dose
- CL [2, 16]: 12.6 ± 2.63 L/h/m^2
- Vz [2, 16]: 279 ± 41.9 L/m^2
- AUCinf [2, 17]: 5.59 ± 0.185 µM·h
- CL [2, 17]: 16.8 ± 0.535 L/h/m^2
- Cmax [2, 17]: 4.17 ± 0.299 µM
- Vz [2, 17]: 216 ± 19.3 L/m^2
- CL [2, 18]: 15.3 ± 4.77 L/h/m^2
- Cmax [2, 18]: 4.45 ± 2.28 µM
- Vz [2, 18]: 206 ± 89.8 L/m^2
- CL [2, 19]: 11.9 ± 2.78 L/h/m^2
- Cmax [2, 19]: 4.68 ± 1.82 µM
- Vz [2, 19]: 181 ± 46.0 L/m^2
- t1/2 ([2]; Day 8, 80 mg/m^2 paclitaxel IV with onalespib 120 mg/m^2, DL1, median (range)): 15.0 (13.1–15.4) h
- AUC(0-inf) ([2]; human, plasma, intravenous, 80 mg/m^2, Mean AUCinf, range across DLs, single agent, cycle 1, day 1, 80 mg/m^2): 5.59 to 7.75 µM·h
- Cmax ([2]; human, plasma, intravenous, 80 mg/m^2, Mean Cmax, range across DLs, single agent, cycle 1, day 1, 80 mg/m^2): 3.87 to 4.68 µM
- AUC(0-inf) ([2]; human, plasma, intravenous, mean AUCinf, range across all four DLs, cycle 1, day 8, 80 mg/m^2 in combination with onalespib): 6.5 to 8.72 µM·h
- Cmax ([2]; human, plasma, intravenous, mean Cmax, range across all four DLs, cycle 1, day 8, 80 mg/m^2 in combination with onalespib): 2.99 to 4.23 µM
- AUC(0-inf) ([2]; human, plasma, iv, 80 mg/m2, AUCinf, Day 1 (no onalespib), 80 mg/m^2 paclitaxel IV, DL1, geometric mean ± SD): 7.44 ± 1.54 µM·h
- AUC(0-inf) ([2]; human, plasma, iv, 80 mg/m2, AUCinf, Day 1 (no onalespib), 80 mg/m^2 paclitaxel IV, DL3, geometric mean ± SD): 6.1 ± 2.24 µM·h
- AUC(0-inf) ([2]; human, plasma, iv, 80 mg/m2, AUCinf, Day 1 (no onalespib), 80 mg/m^2 paclitaxel IV, DL4, geometric mean ± SD): 7.75 ± 1.75 µM·h
- half-life ([2]; human, plasma, iv, 80 mg/m2, t1/2, Day 1 (no onalespib), 80 mg/m^2 paclitaxel IV, DL2, median (range)): 9.18 h
- half-life ([2]; human, plasma, iv, 80 mg/m2, t1/2, Day 1 (no onalespib), 80 mg/m^2 paclitaxel IV, DL3, median (range)): 9.06 h
- half-life ([2]; human, plasma, iv, 80 mg/m2, t1/2, Day 1 (no onalespib), 80 mg/m^2 paclitaxel IV, DL4, median (range)): 10.6 h
- AUC(0-inf) ([2]; human, plasma, iv, AUCinf, Day 8, 80 mg/m^2 paclitaxel IV with onalespib 120 mg/m^2, DL1, geometric mean ± SD): 7.97 ± 2.95 µM·h
- AUC(0-inf) ([2]; human, plasma, iv, AUCinf, Day 8, 80 mg/m^2 paclitaxel IV with onalespib 200 mg/m^2, DL3, geometric mean ± SD): 6.47 ± 2.18 µM·h
- AUC(0-inf) ([2]; human, plasma, iv, AUCinf, Day 8, 80 mg/m^2 paclitaxel IV with onalespib 260 mg/m^2, DL4, geometric mean ± SD): 8.72 ± 2.54 µM·h
- Cmax ([2]; human, plasma, iv, Cmax, Day 8, 80 mg/m^2 paclitaxel IV with onalespib 120 mg/m^2, DL1, geometric mean ± SD): 2.99 ± 3.59 µM
- Cmax ([2]; human, plasma, iv, Cmax, Day 8, 80 mg/m^2 paclitaxel IV with onalespib 200 mg/m^2, DL3, geometric mean ± SD): 4.23 ± 2.18 µM
- half-life ([2]; human, plasma, iv, t1/2, Day 8, 80 mg/m^2 paclitaxel IV with onalespib 200 mg/m^2, DL3, median (range)): 8.67 h
- half-life ([2]; human, plasma, iv, t1/2, Day 8, 80 mg/m^2 paclitaxel IV with onalespib 260 mg/m^2, DL4, median (range)): 10.7 h
- interaction with P-gp [6]: substrate for MDR1 P-gp
